Measurements reported in the Kinase Knowledgebase extract (Sharma et al. 2016).

target: EGFR (human) (UniProt P00533)
Sequence (P00533 whole entry, looked up): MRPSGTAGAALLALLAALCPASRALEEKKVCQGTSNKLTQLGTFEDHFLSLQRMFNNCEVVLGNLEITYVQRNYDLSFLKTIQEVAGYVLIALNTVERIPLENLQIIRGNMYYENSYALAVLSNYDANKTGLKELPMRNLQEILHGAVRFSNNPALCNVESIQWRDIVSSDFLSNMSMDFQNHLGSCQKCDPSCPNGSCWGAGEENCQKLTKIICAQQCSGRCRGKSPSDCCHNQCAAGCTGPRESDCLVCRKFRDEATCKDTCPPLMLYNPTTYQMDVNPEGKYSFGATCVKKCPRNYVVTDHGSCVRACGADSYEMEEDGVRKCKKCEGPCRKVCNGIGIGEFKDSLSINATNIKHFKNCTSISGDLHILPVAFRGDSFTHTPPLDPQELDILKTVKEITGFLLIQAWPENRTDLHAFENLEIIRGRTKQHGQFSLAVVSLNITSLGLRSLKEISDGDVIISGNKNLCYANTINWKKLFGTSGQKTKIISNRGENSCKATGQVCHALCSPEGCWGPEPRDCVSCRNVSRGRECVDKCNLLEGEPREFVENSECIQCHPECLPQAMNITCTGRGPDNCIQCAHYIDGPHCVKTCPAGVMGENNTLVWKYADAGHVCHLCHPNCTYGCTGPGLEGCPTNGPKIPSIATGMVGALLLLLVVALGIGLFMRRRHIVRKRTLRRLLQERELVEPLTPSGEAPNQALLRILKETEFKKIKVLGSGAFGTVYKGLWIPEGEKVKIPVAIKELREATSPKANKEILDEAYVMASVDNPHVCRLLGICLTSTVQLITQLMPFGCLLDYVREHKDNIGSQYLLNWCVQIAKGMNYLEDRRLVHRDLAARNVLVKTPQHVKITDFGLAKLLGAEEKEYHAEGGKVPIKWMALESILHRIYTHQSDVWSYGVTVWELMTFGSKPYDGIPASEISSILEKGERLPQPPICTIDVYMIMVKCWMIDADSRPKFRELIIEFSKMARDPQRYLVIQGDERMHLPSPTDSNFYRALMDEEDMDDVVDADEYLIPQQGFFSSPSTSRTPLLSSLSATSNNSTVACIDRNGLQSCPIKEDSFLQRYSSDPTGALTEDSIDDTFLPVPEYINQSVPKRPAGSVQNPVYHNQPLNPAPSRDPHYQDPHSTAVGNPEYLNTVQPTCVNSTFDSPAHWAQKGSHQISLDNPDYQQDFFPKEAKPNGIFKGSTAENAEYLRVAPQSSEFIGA

SMILES | IC50
COc1ccc(Nc2nccc(-c3scnc3-c3cccc(NC(=O)c4c(F)cccc4F)c3)n2)cc1N1CCN(C)CC1 | < 100 nM
CC(C)c1nc(-c2cccc(NC(=O)c3c(F)cccc3F)c2)c(-c2ccnc(Nc3cccc(OCCN(C)C)c3)n2)s1 | < 100 nM
CCN(CC)CCOc1cccc(Nc2nccc(-c3scnc3-c3cccc(NC(=O)c4c(F)cccc4F)c3)n2)c1 | < 100 nM
CN(C)Cc1cccc(Nc2nccc(-c3scnc3-c3cccc(NC(=O)c4c(F)cccc4F)c3)n2)c1 | < 100 nM
Nc1nc(-c2cccc(NC(=O)c3c(F)cccc3F)c2)c(-c2ccnc(Nc3cccc(CCS(N)(=O)=O)c3)n2)s1 | < 100 nM
O=C(Nc1cccc(-c2nc(N3CCC3)sc2-c2ccnc(Nc3ccc(OCCN4CCCC4)c(Cl)c3)n2)c1)c1c(F)cccc1F | < 100 nM
CN(C)CCOc1ccc(Nc2nccc(-c3sc(N4CCCCC4)nc3-c3cccc(NC(=O)c4c(F)cccc4F)c3)n2)cc1Cl | < 100 nM
CN(C)CCOc1ccc(Nc2nccc(-c3sc(-c4ccc(O)cc4)nc3-c3cccc(NC(=O)c4c(F)cccc4F)c3)n2)cc1Cl | < 100 nM
CCN(CC)CCOc1cccc(Nc2nccc(-c3scnc3-c3cccc(NC(=O)c4cc(F)ccc4F)c3)n2)c1 | < 100 nM
CCc1nc(-c2cccc(NC(=O)c3c(F)cccc3F)c2)c(-c2ccnc(Nc3ccc(OCCN(C)C)c(F)c3)n2)s1 | < 100 nM
CN(C)c1nc(-c2cccc(NC(=O)c3c(F)cccc3F)c2)c(-c2ccnc(Nc3cccc(CN4CCCC4)c3)n2)s1 | < 100 nM
Cc1nc(-c2cccc(NC(=O)c3c(F)cccc3F)c2)c(-c2ccnc(Nc3ccc(OC4CCN(C(C)C)CC4)c(F)c3)n2)s1 | < 100 nM
Cc1nc(-c2cccc(NC(=O)c3c(F)cccc3F)c2)c(-c2ccnc(Nc3ccc(OC4CCN(C(=O)OCc5ccccc5)CC4)c(F)c3)n2)s1 | < 100 nM
CN(C)CCOc1ccc(Nc2nccc(-c3scnc3-c3cccc(NC(=O)c4c(F)cccc4F)c3)n2)cc1Cl | < 100 nM
Cc1cc(-c2sc(N)nc2-c2cccc(NC(=O)c3c(F)cccc3F)c2)nc(Nc2cccc(OCCN(C)C)c2)n1 | < 100 nM
CN(C)CCOc1ccc(Nc2nccc(-c3sc(N)nc3-c3cccc(NC(=O)C4CCCCC4)c3)n2)cc1Cl | < 100 nM
CC(C)(C)S(=O)(=O)Cc1nc(-c2cccc(NC(=O)c3c(F)cccc3F)c2)c(-c2ccnc(Nc3ccc(OCCN4CCCC4)c(Cl)c3)n2)s1 | < 100 nM
CNc1nc(-c2cccc(NC(=O)c3c(F)cccc3F)c2)c(-c2ccnc(Nc3cccc(CN4CCCC4)c3)n2)s1 | < 100 nM
Nc1nc(-c2cccc(NC(=O)c3c(F)cccc3F)c2)c(-c2ccnc(Nc3cccc(F)c3)n2)s1 | < 100 nM

SMILES | IC50
Nc1nc(-c2cccc(NC(=O)c3c(F)cccc3F)c2)c(-c2ccnc(Nc3cccc(-c4cnco4)c3)n2)s1 | < 100 nM
Cc1nc(-c2cccc(NC(=O)c3cccc(Cl)c3)c2)c(-c2ccnc(Nc3ccc(OCCN(C)C)c(Cl)c3)n2)s1 | < 100 nM
CN(C)CCOc1ccc(Nc2nccc(-c3sc(N)nc3-c3ccc(F)c(NC(=O)c4c(F)cccc4F)c3)n2)cc1Cl | < 100 nM
CC(=O)N1CCC(Oc2ccc(Nc3nccc(-c4sc(C)nc4-c4cccc(NC(=O)c5c(F)cccc5F)c4)n3)cc2F)CC1 | < 100 nM
COc1ccc(Nc2nccc(-c3sc(N)nc3-c3cccc(NC(=O)c4c(F)cccc4F)c3)n2)cc1OCCN(C)C | < 100 nM
CC(C)(C)c1nc(-c2cccc(NC(=O)c3c(F)cccc3F)c2)c(-c2ccnc(Nc3cccc(CN4CCCC4)c3)n2)s1 | < 100 nM
CN(C)CCCNc1ccc(Nc2nccc(-c3sc(N)nc3-c3cccc(NC(=O)c4cccn4C)c3)n2)cc1F | < 100 nM
O=C(Nc1cccc(-c2ncsc2-c2ccnc(Nc3cccc(CN4CCCC4)c3)n2)c1)c1c(F)cccc1F | < 100 nM
CN(C)CCOc1ccc(Nc2nccc(-c3sc(N)nc3-c3cccc(C(=O)Nc4c(F)cccc4F)c3)n2)cc1Cl | < 100 nM
CN(C)CCOc1ccc(Nc2nccc(-c3sc(N)nc3-c3cc(NC(=O)c4c(F)cccc4F)ccc3F)n2)cc1Cl | < 100 nM
COc1ccc(Nc2nccc(-c3sc(N)nc3-c3cccc(NC(=O)c4c(F)cccc4F)c3)n2)cc1N(C)C | < 100 nM
COc1ccc(Nc2nccc(-c3sc(N)nc3-c3cccc(NC(=O)c4c(F)cccc4F)c3)n2)cc1N1CCN(C)CC1 | < 100 nM
CN(C)CCOc1cccc(Nc2nccc(-c3sc(N)nc3-c3cccc(C(=O)Nc4c(F)cccc4F)c3)n2)c1 | < 100 nM
Nc1nc(-c2cccc(NC(=O)c3c(F)cccc3F)c2)c(-c2ccnc(Nc3cccc(CN4CCCC4)c3)n2)s1 | < 100 nM
CNc1nc(-c2cccc(NC(=O)c3c(F)cccc3F)c2)c(-c2ccnc(Nc3ccc(OCCN(C)C)c(Cl)c3)n2)s1 | < 100 nM
Nc1nc(-c2cccc(NC(=O)Cc3cccs3)c2)c(-c2ccnc(Nc3cccc(F)c3)n2)s1 | < 100 nM
CS(=O)(=O)Cc1ccc(Nc2nccc(-c3scnc3-c3cccc(NC(=O)c4c(F)cccc4F)c3)n2)cc1 | < 100 nM
CCNc1nc(-c2cccc(NC(=O)c3c(F)cccc3F)c2)c(-c2ccnc(Nc3ccc(CCN4CCCC4)c(F)c3)n2)s1 | < 100 nM
CCc1nc(-c2cccc(NC(=O)c3c(F)cccc3F)c2)c(-c2ccnc(Nc3cccc(CN4CCCC4)c3)n2)s1 | < 100 nM

SMILES | IC50
CN(C)CCOc1ccc(Nc2nccc(-c3sc(N(C)C)nc3-c3cccc(NC(=O)c4c(F)cccc4F)c3)n2)cc1Cl | < 100 nM
CCN(CC)CCOc1cccc(Nc2nccc(-c3scnc3-c3cccc(NC(=O)Cc4cccs4)c3)n2)c1 | < 100 nM
COc1ccccc1C(=O)Nc1cccc(-c2nc(C)sc2-c2ccnc(Nc3ccc4c(c3)CN(C)CC4)n2)c1 | < 100 nM
O=C(Nc1cccc(-c2nc(CO)sc2-c2ccnc(Nc3ccc(OCCN4CCCC4)c(F)c3)n2)c1)c1c(F)cccc1F | < 100 nM
O=C(Nc1cccc(-c2nc(NC3CC3)sc2-c2ccnc(Nc3ccc(OCCN4CCCC4)c(F)c3)n2)c1)c1c(F)cccc1F | < 100 nM
Cc1cccc(C(=O)Nc2cccc(-c3nc(C)sc3-c3ccnc(Nc4ccc(OCCN(C)C)c(Cl)c4)n3)c2)c1 | < 100 nM
CS(=O)(=O)CCN1CCN(c2ccc(Nc3nccc(-c4scnc4-c4cccc(NC(=O)c5c(F)cccc5F)c4)n3)cc2F)CC1 | < 100 nM
CN(C)CCOc1cccc(Nc2nccc(-c3scnc3-c3cccc(NC(=O)c4c(F)cccc4F)c3)n2)c1 | < 100 nM
NS(=O)(=O)CCc1cccc(Nc2nccc(-c3scnc3-c3cccc(NC(=O)c4c(F)cccc4F)c3)n2)c1 | < 100 nM
CN1CCc2ccc(Nc3nccc(-c4sc(N5CCCC5)nc4-c4cccc(NC(=O)c5c(F)cccc5F)c4)n3)cc2C1 | < 100 nM
CN(C)Cc1cccc(Nc2nccc(-c3scnc3-c3cccc(NC(=O)Cc4cccs4)c3)n2)c1 | < 100 nM
Nc1nc(-c2cccc(NC(=O)c3c(F)cccc3F)c2)c(-c2ccnc(Nc3ccc4c(c3)NC(=O)CO4)n2)s1 | < 100 nM
CN(C)CCOc1cccc(Nc2nccc(-c3scnc3-c3cccc(NC(=O)c4cc(F)ccc4F)c3)n2)c1 | < 100 nM
CN1CCc2ccc(Nc3nccc(-c4sc(N(C)C)nc4-c4cccc(NC(=O)c5c(F)cccc5F)c4)n3)cc2C1 | < 100 nM
Cc1nc(-c2cccc(NC(=O)c3c(F)cccc3F)c2)c(-c2ccnc(Nc3ccc(OCCN(C)C)c(F)c3)n2)s1 | < 100 nM
Nc1nc(-c2cccc(NC(=O)c3c(F)cccc3F)c2)c(-c2ccnc(Nc3ccc4c(c3)CNCC4)n2)s1 | < 100 nM
Cc1nc(-c2cccc(NC(=O)c3c(F)cccc3F)c2)c(-c2ccnc(Nc3ccc(OCCN(C)C)c(Cl)c3)n2)s1 | < 100 nM
O=C(Nc1cccc(-c2nc(CF)sc2-c2ccnc(Nc3ccc(OCCN4CCCC4)c(F)c3)n2)c1)c1c(F)cccc1F | < 100 nM
COCCOc1ccc(Nc2nccc(-c3sc(N)nc3-c3cccc(NC(=O)c4cc(F)ccc4F)c3)n2)cc1F | < 100 nM
